Reference: US20190270778A1, “Cyclic Peptides As C5a Receptor Antagonists” (priority 2016, published 2019)

What was measured:
C5a receptor [1] = target: T1, C5a receptor (Homo sapiens, UniProt P21730); assay: HWB oxidative burst assay (C5a-induced, luminol chemiluminescence); type: cell-based
T1 construct: endogenous in cells; host or cells: leukocytes/granulocytes in freshly drawn whole blood of healthy volunteers
T1 sequence (P21730 1-350): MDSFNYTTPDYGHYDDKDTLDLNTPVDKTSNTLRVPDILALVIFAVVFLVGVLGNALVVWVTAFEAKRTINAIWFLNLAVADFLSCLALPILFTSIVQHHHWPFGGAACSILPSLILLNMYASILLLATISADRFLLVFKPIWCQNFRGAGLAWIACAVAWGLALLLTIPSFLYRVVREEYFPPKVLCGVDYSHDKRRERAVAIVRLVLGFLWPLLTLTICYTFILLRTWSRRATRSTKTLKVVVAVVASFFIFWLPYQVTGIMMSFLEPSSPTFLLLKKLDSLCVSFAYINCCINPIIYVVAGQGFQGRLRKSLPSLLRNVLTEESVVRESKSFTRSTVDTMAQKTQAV
Description: Inhibition of oxidative burst activity was determined in HWB primed with TNF-α and stimulated with C5a. C5a-induced oxidative burst response (generation of reactive oxygen species) was then detected in the presence of luminol as a chemiluminescent signal.
On the day of assay, HWB was collected from a healthy, non-medicated volunteer into tubes containing 3.8% sodium citrate (final sodium citrate concentration in HWB is 0.38%) and stored in a 37° C. water bath until use (no longer than 60 minutes).
To start the assay, TNF-α was added to HWB to a final concentration of 1.0 nM and 68 μL of this HWB/TNF-α mix was transferred to each well of a 384-well white Optiplate (assay plate). 4.0 μL of various concentrations of test agent were then added to the assay plate and mixed twice gently by aspirating up and down. The assay plate was then placed on a thermoshaker (JITTERBUG-4) and incubated at 37° C. (without shaking). After 60 minutes, C5a (Complement Technology) prepared in luminol (Sigma) was added to the assay plate and mixed twice gently by aspirating up and down. The plate was then placed in a ViewLux 1430 Microplate Imager (Perkin Elmer). After 5 minutes, oxidative burst activity was determined with the ViewLux by measuring luminol-enhanced whole blood chemiluminescence. Final assay conditions were 1.5 mM HEPES pH 7.5, 0.015% BSA, 15% HBSS, 0.85 ng/mL TNFα, 1.0 mM Luminol, C5a 20 nM, 76.5% HWB, 0.15% DMSO and various concentrations of test agent.
The percent (%) effect at each concentration of test agent was then calculated based on and relative to the amount of signal that was produced by positive (i.e. full inhibition of C5a induced oxidative burst) and negative (i.e. completely uninhibited C5a induced oxidative burst) control wells contained within each assay plate. The concentration and % effect values for test agents were plotted and the concentration of test agent required for 50% effect (IC50) was determined with a four-parameter logistic dose response equation (BioBook; IDBS). Kb (nM) was then calculated (BioBook; IDBS) using the equation described by Leff and Dougal (TIPS 1993 14:110-112).

C5a receptor [2] = target: T1, C5a receptor; assay: HWB CD11b expression assay (C5a-challenged granulocytes, flow cytometry); type: cell-based
Description: HWB was collected from healthy, non-medicated volunteers into BD Vacutainer® blood collection tubes with K2EDTA as an anticoagulant. HWB was aliquoted (85 μL/well) in 96-well, deep-well, V-bottom plates and incubated at 37° C. for 30 minutes. Test compounds (5 μL/well) were added to HWB and incubated at 37° C. for 30 minutes. Anti-human CD11b antibody conjugated with APC (BD Biosciences) was added to HWB (5 μL/well) and incubated at 37° C. for additional 30 minutes. HWB was then challenged with human C5a (final 1 nM) for 30 minutes at 37° C. Samples were treated with warm 1× Lyse/Fix buffer (BD Biosciences) to terminate activation and further incubated at 37° C. for 20 minutes to lyse red blood cells. Assay plates were centrifuged at 300×g for 5 minutes, supernatant was aspirated, and cells were washed once with PBS containing 0.5% FBS. Washed cells were resuspended in PBS containing 0.5% FBS and subjected to flow cytometric analysis using an LSRFortessa equipped with a HTS plate loader (BD Biosciences). The granulocyte population was gated for analysis of MF of CD11b staining using FACSDiva version 6.2 (BD Biosciences). Data from 11 compound concentrations (singlicate at each concentration) was normalized as a percentage of control based on the formula:
% of Control=100×(A−B)/(C−B)
where A is MF from wells containing test compound and C5a, B is MF from wells without C5a (background MF from unstimulated samples) and C is MF from wells containing only C5a (maximum MF). Inhibition curves and IC50 values (test compound concentrations which produce 50% inhibition) were determined using the Prism version 5 software (GraphPad). HWB was also stimulated with 11 different concentrations of C5a to construct a responsive curve and to obtain EC50 value (the concentration of C5a that gives half-maximal response) and curve slope using the Prism version 5 software. Kb (nM) was then calculated using the equation described by Leff and Dougal (TIPS 1993 14:110-112).

SMILES	Kb (C5a receptor [1]) [µM]	Kb (C5a receptor [2]) [µM]
N=C(N)NCCC[C@@H]1NC(=O)[C@H](Cc2c[nH]c3ncccc23)NC(=O)[C@@H](C[C@H]2CC[C@@H](O)CC2)NC(=O)[C@@H]2C[C@@H](O)CN2C(=O)[C@@H](NC(=O)[C@H](Cc2ccccc2)NCC(=O)O)CCCNC1=O [Example 6, ((S)-1-(((3R,6S,9S,15S,19R,20aS)-6-((1H-pyrrolo[2,3-b]pyridin-3-yl)methyl)-9-(3-guanidinopropyl)-19-hydroxy-3-(((1s,4S)-4-hydroxycyclohexyl)methyl)-1,4,7,10,16-pentaoxoicosahydropyrrolo[1,2-a][1,4,7,10,13]pentaazacyclooctadecin-15-yl)amino)-1-oxo-3-phenylpropan-2-yl)glycine]	0.0681	0.46
N=C(N)NCCC[C@@H]1NC(=O)[C@H](Cc2c[nH]c3ccccc23)NC(=O)[C@@H](C[C@H]2CC[C@@H](O)CC2)NC(=O)[C@@H]2C[C@H](N)CN2C(=O)[C@@H](NC(=O)[C@H](Cc2ccccc2)NCC(=O)O)CCCNC1=O [Example 7, ((S)-1-(((3R,6S,9S,15S,19S,20aS)-6-((1H-indol-3-yl)methyl)-19-amino-9-(3-guanidinopropyl)-3-(((1s,4S)-4-hydroxycyclohexyl)methyl)-1,4,7,10,16-pentaoxoicosahydropyrrolo[1,2-a][1,4,7,10,13]pentaazacyclooctadecin-15-yl)amino)-1-oxo-3-phenylpropan-2-yl)glycine]	0.0018	0.0109
N=C(N)NCCC[C@@H]1NC(=O)[C@H](Cc2c[nH]c3ccccc23)NC(=O)[C@@H](C[C@H]2CC[C@@H](O)CC2)NC(=O)[C@@H]2C[C@@H](N)CN2C(=O)[C@@H](NC(=O)[C@H](Cc2ccccc2)NCC(=O)O)CCCNC1=O [Example 8, ((S)-1-(((3R,6S,9S,15S,19R,20aS)-6-((1H-indol-3-yl)methyl)-19-amino-9-(3-guanidinopropyl)-3-(((1s,4S)-4-hydroxycyclohexyl)methyl)-1,4,7,10,16-pentaoxoicosahydropyrrolo[1,2-a][1,4,7,10,13]pentaazacyclooctadecin-15-yl)amino)-1-oxo-3-phenylpropan-2-yl)glycine]	0.004	0.0198
CC(=O)N[C@@H]1C[C@H]2C(=O)N[C@H](C[C@H]3CC[C@@H](O)CC3)C(=O)N[C@@H](Cc3c[nH]c4ccccc34)C(=O)N[C@@H](CCCNC(=N)N)C(=O)NCCC[C@H](NC(=O)[C@H](Cc3ccccc3)NCC(=O)O)C(=O)N2C1 [Example 9, ((S)-1-(((3R,6S,9S,15S,19R,20aS)-6-((1H-indol-3-yl)methyl)-19-acetamido-9-(3-guanidinopropyl)-3-(((1s,4S)-4-hydroxycyclohexyl)methyl)-1,4,7,10,16-pentaoxoicosahydropyrrolo[1,2-a][1,4,7,10,13]pentaazacyclooctadecin-15-yl)amino)-1-oxo-3-phenylpropan-2-yl)glycine]	0.001	0.0326
CC(=O)N[C@H]1C[C@H]2C(=O)N[C@H](C[C@H]3CC[C@@H](O)CC3)C(=O)N[C@@H](Cc3c[nH]c4ccccc34)C(=O)N[C@@H](CCCNC(=N)N)C(=O)NCCC[C@H](NC(=O)[C@H](Cc3ccccc3)NCC(=O)O)C(=O)N2C1 [Example 10, ((S)-1-(((3R,6S,9S,15S,19S,20aS)-6-((1H-indol-3-yl)methyl)-19-acetamido-9-(3-guanidinopropyl)-3-(((1s,4S)-4-hydroxycyclohexyl)methyl)-1,4,7,10,16-pentaoxoicosahydropyrrolo[1,2-a][1,4,7,10,13]pentaazacyclooctadecin-15-yl)amino)-1-oxo-3-phenylpropan-2-yl)glycine]	0.0021	0.0117
